# Assay results as given in patent US12285431B2, “Treatment of Rb-negative tumors using topoisomerase inhibitors in combination with cyclin dependent kinase 4/6 inhibitors” (G1 Therapeutics, Inc., priority 2014, dated 2025).
# “Also recorded” adds a separate entry of the source.
# Tests used:
# [1] = test system: A2058 cells (Rb-negative); assay: Cell cycle arrest screen, A2058; type: cell-based; conditions: 24 hours
# Excerpt: (§1) To test the ability of the disclosed CDK4/6 inhibitors to induce a clean G1-arrest, a cell based screening method was used consisting of two Rb-positive (tHS68 and WM2664) and one Rb-negative (A2058) cell line. […] At the conclusion of the experiment, cells were harvested, fixed, and stained with propidium iodide (a DNA intercalator), which fluoresces strongly red (emission maximum 637 nm) when excited by 488 nm light. Samples were run on Dako Cyan flow cytometer and >10,000 events were collected for each sample. Data were analyzed using FlowJo 2.2 software developed by TreeStar, Inc.
# [2] = test system: NCI-H69 SCLC xenograft (Rb-negative); type: in vivo
# Excerpt: An Rb-negative model of small cell lung cancer was used in the following example. Briefly, xenografts of National Cancer Institute (NCI) […] cells were grafted onto the mice (Athymic Nude (Crl:NU(NCr)-Foxn1^nu); 6-12 week old females) using the South Texas Accelerated Research Therapeutics (START) Cell-Based Xenograft (START-CBX) tumor model. H69 cells are human small cell lung cancer cells and are Rb-negative.
# Data collected from the efficacy study included animal weights, observations and tumor dimensions. This information was used to determine agent tolerability based on weight change and gross physiologic changes and anticancer activity based on tumor growth delay or regression. The designated endpoint for this study was an individual tumor volume of 1 cm^3 or 60 days following treatment initiation.
# Tumor fragments from NCI-H69 were harvested from host animals and implanted into immune-deficient mice and the study initiated at a mean tumor volume of approximately 150-250 mm^3.
# Additional details of the study are outlined in Table 6 below. […] Tumor size was examined twice per week and the endpoint for this study was Day 59.
# [3] = test system: WM2664 cells (Rb-positive); assay: Cell cycle arrest screen, WM2664; type: cell-based; conditions: 24 hours
# Excerpt: as §1
# [4] = Mouse pharmacokinetics (oral gavage / intravenous); type: in vivo, mice; conditions: for AUC 0-inf (uM * h) i.v.: 10 mg/kg intravenous injection; for AUC (uM * h) p.o. / Cmax / Tmax (h) p.o. / t1/2 (h) p.o.: 30 mg/kg oral gavage; for t1/2 (h) p.o.: 30 mg/kg
# [5] = test system: Rb phosphorylation (Ser780, Ser807/811) in WM2664 cells; assay: Rb phosphorylation western blot, WM2664; type: cell-based; conditions: WM2664, 300 nM, 4, 8, 16 and 24 hours
# Description: (§2) The CDK4/6-cyclin D complex is essential for progression from G1 to the S-phase of the DNA cell cycle. This complex phosphorylates the retinoblastoma tumor suppressor protein (Rb). […] Samples were lysed and protein was assayed by western blot analysis. Rb phosphorylation was measured at two sites targeted by the CDK4/6-cyclin D complex, Ser780 and Ser807/811 using species specific antibodies.
# [6] = test system: NCI-H69 SCLC xenograft (Rb-negative); assay: NCI-H69 SCLC xenograft model, Example 156; type: in vivo, mice; conditions: Compound T 100 mg/kg po qd×5×4; carboplatin 40 mg/kg and etoposide 4 mg/kg ip twice per week for 3 weeks; topotecan 0.6 mg/kg ip once daily for 5 days; FIG. 11
# [7] = test system: ZR-75-1 (breast ductal carcinoma, Rb-positive); assay: Cellular proliferation assay (CellTiter-Glo), ZR-75-1; type: cell-based; conditions: Homo sapiens, ZR-75-1, 144 h, cell viability after six days, read-out: ZR75-1 Cellular EC50
# Description: (§3) Further cellular proliferation assays were conducted using the following cancer cell lines: MCF7 (breast adenocarcinoma—Rb-positive), ZR-75-1 (breast ductal carcinoma—Rb-positive), H69 (human small cell lung cancer—Rb-negative) cells, or A2058 (human metastatic melanoma cells—Rb-negative). These cells were seeded in Costar (Tewksbury, Massachusetts) 3093 96 well tissue culture treated white walled/clear bottom plates. Cells were treated with the compounds of Table 1 as nine point dose response dilution series from 10 uM to 1 nM. Cells were exposed to compounds and then cell viability was determined after either four (H69) or six (MCF7, ZR75-1, A2058) days as indicated using the CellTiter-Glo® luminescent cell viability assay (CTG; Promega, Madison, Wisconsin, United States of America) following the manufacturer's recommendations. Plates were read on BioTek (Winooski, Vermont) Syngergy2 multi-mode plate reader. The Relative Light Units (RLU) were plotted as a result of variable molar concentration and data was analyzed using Graphpad (LaJolla, California) Prism 5 statistical software to determine the EC50 for each compound.
# [8] = test system: Rb phosphorylation (Ser780, Ser807/811) in tHS68 cells; assay: Rb phosphorylation western blot, tHS68; type: cell-based; conditions: tHS68, 300 nM, 4, 8, 16 and 24 hours
# Description: as §2
# [9] = test system: Rb phosphorylation (Ser780, Ser807/811) in A2058 cells; assay: Rb phosphorylation western blot, A2058; type: cell-based; conditions: A2058, 300 nM, 4, 8, 16 and 24 hours
# Description: as §2
# [10] = test system: A2058 (human metastatic melanoma cells, Rb-negative); assay: Cellular proliferation assay (CellTiter-Glo), A2058; type: cell-based; conditions: A2058, 144 h, cell viability after six days
# Description: as §3
# [11] = test system: H69 (human small cell lung cancer, Rb-negative) cells; assay: Cellular proliferation assay (CellTiter-Glo), H69; type: cell-based; conditions: NCI-H69, 96 h, cell viability after four days
# Description: as §3
# [12] = test system: 456 (395 non-mutant) kinases; assay: DiscoveRx KINOMEscan profiling; type: binding; conditions: single concentration 1000 nM
# [13] = test system: tHS68 cells (Rb-positive); assay: Cell cycle arrest screen, tHS68; type: cell-based
# Excerpt: as §1
# [14] = test system: MCF7 (breast adenocarcinoma, Rb-positive); assay: Cellular proliferation assay (CellTiter-Glo), MCF7; type: cell-based; conditions: Homo sapiens, MCF7, 144 h, cell viability after six days
# Description: as §3
# [15] = test system: HS68 cells; assay: G1 arrest (cellular G1 and S-phase) assay, propidium iodide flow cytometry; type: cell-based, human
# Description: HS68 cells (human skin fibroblast cell line (Rb-positive)) were stained with propidium iodide staining solution and run on Dako Cyan Flow Cytometer. The fraction of cells in G0-G1 DNA cell cycle versus the fraction in S-phase DNA cell cycle was determined using FlowJo 7.2.2 analysis.
# The compounds listed in Table 1 were tested for their ability to arrest HS68 cells at the G1 phase of the cell cycle.
# [16] = biological target: CDK4/CyclinD1 (Homo sapiens, UniProt P11802); assay: CDK4/cyclinD1 kinase assay (Nanosyn, Caliper microfluidic kinase detection); type: biochemical; conditions: read-out: CDK4/CycD1 IC50
# Sequence of CDK4/CyclinD1 (P11802 whole entry, species assumed): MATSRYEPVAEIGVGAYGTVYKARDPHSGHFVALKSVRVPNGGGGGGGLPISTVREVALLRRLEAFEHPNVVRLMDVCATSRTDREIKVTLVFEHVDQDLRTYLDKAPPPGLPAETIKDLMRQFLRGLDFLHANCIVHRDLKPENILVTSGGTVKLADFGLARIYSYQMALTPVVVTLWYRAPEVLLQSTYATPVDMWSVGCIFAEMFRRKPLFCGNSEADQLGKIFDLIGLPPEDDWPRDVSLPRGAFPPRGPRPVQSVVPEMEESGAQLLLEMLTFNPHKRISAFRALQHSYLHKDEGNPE
# Sequence of CDK4/CyclinD1 (P24385 whole entry partner, species assumed): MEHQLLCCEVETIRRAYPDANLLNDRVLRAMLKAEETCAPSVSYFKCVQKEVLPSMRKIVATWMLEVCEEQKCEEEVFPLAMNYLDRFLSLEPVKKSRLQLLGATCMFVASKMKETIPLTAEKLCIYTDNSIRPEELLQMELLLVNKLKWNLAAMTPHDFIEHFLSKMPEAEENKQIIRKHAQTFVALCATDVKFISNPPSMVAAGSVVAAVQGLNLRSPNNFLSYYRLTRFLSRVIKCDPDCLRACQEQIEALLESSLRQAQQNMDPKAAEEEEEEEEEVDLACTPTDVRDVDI
# Description: The assays were performed using microfluidic kinase detection technology (Caliper Assay Platform). The compounds were tested in 12-point dose-response format in singlicate at Km for ATP. Phosphoacceptor substrate peptide concentration used was 1 μM for all assays and Staurosporine was used as the reference compound for all assays. Specifics of each assay are as described below:
# CDK4/CyclinD1: Enzyme concentration: 1 nM; ATP concentration: 200 μM; Incubation time: 10 hr.
# [17] = biological target: CDK2/CyclinE (Homo sapiens, UniProt P24941); assay: CDK2/cyclinE kinase assay (Nanosyn, Caliper); type: biochemical; conditions: Table 2
# [18] = biological target: CDK6/CycD3 (Homo sapiens, UniProt Q00534); assay: CDK6/CycD3 kinase assay; conditions: read-out: CDK6/CycD3 IC50; Table 3
# Sequence of CDK6/CycD3 (Q00534 whole entry, species assumed): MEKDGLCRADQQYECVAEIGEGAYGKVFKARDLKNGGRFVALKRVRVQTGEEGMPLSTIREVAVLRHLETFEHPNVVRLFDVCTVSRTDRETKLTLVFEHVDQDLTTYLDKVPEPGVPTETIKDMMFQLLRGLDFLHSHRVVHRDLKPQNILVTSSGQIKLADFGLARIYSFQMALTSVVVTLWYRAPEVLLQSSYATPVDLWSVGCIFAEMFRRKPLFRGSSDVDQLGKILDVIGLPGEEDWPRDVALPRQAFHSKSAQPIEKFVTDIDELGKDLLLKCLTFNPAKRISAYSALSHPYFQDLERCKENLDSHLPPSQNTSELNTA
# Sequence of CDK6/CycD3 (P30281 whole entry partner, species assumed): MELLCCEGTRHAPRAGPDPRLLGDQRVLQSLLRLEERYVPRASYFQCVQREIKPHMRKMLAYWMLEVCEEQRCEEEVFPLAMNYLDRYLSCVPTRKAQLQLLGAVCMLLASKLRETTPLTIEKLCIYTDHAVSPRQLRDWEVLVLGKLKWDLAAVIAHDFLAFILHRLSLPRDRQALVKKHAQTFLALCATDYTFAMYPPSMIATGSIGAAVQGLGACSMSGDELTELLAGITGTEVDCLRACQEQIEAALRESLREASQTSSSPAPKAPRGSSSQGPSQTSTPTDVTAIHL
# [19] = Group 2: Compound T 100 mg/kg PO qdx5x4 and topotecan vehicle
compound,measurement,setting,value
CN1CCN(c2ccc(Nc3ncc4cc5n(c4n3)C3(CCCCC3)CNC5=O)nc2)CC1 [Compound T],cell cycle distribution at 300 nM (in words),[1],does not cause a loss of the S-phase peak
same,activity toward NCI-H69 xenografts / tumor volume (in words),"[2]; Compound T alone 100 mg/kg, topotecan 0.6 mg/kg, combination with each Compound T dose (100, 50 or 10 mg/kg), FIG. 16",inactive
same,tolerability: weight loss or toxicity (in words),"[2]; Compound T alone or thirty minutes before topotecan, FIG. 13",well tolerated with no additive weight loss or toxicity
same,CR (tumor volume < 15 mm^3),[2]; [19],0
same,LTS (individual tumor volume < volume endpoint at study time endpoint),[2]; [19],0
same,MTTE ± SD (timepoint in days to reach designated tumor volume or time endpoint),[2]; [19],14 ± 4 days
same,PR (%) (tumor volume ≥ 50% regression versus Day 0),[2]; [19],0%
same,T-C (difference in days between MTTE of treatment and control groups),[2]; [19],<0 days
same,TFS (complete responder at study endpoint),[2]; [19],0
same,cell cycle distribution at 300 nM (in words),[3],loss of the S-phase peak
same,AUC 0-inf (uM * h) i.v.,[4],1.3 µM·h
same,AUC (uM * h) p.o.,[4],2.9 µM·h
same,Cmax,[4],2.5 µM
same,Tmax (h) p.o.,[4],1 h
same,t1/2 (h) p.o.,[4],5 h
same,Rb phosphorylation at Ser780 and Ser807/811 (in words),[5],blocks Rb phosphorylation in Rb-positive cell lines by 16 hours post exposure; also recorded: reduced Rb-phosphorylation starting 16 hours after treatment
same,effect on tumor growth / tumor size (in words),[6],very little effect of slowing tumor growth
same,EC50,[7],36 nM
same,Rb phosphorylation at Ser780 and Ser807/811 (in words),[8],blocks Rb phosphorylation in Rb-positive cell lines by 16 hours post exposure; also recorded: reduced Rb-phosphorylation starting 16 hours after treatment
same,Rb phosphorylation at Ser780 and Ser807/811 (in words),[9],but not in the Rb-negative cell line (A2058)
same,EC50,[10],> 3000 nM
same,EC50,[11],> 3000 nM
same,"number of 395 non-mutant kinases inhibited, inhibitory threshold 65%",[12],92
same,"number of 395 non-mutant kinases inhibited, inhibitory threshold 90%",[12],31
same,"number of 395 non-mutant kinases inhibited, inhibitory threshold 99%",[12],6
same,"share of 395 non-mutant kinases inhibited, inhibitory threshold 65%",[12],23.3%
same,"share of 395 non-mutant kinases inhibited, inhibitory threshold 90%",[12],7.8%
same,"share of 395 non-mutant kinases inhibited, inhibitory threshold 99%",[12],1.5%
same,cell cycle distribution at 300 nM (in words),"[13]; 300 nM, 24 hours",loss of the S-phase peak
same,EC50,"[13]; 24 hours treatment, read-out: G1 cell cycle arrest EC50",80 nM
same,S-phase fraction at the highest concentration shown,"[13]; 24 hours, 28% at baseline",6%
same,"cell cycle distribution, increasing concentrations (in words)","[13]; 24 hours, FIG. 9A",robust G1 cell cycle arrest; also recorded: clean G1 arrest accompanied by a corresponding decrease in the number of cells in S-phase
same,EC50,[14],49 nM
same,EC50,"[15]; Homo sapiens, Hs68, HS68 cells",100 nM
CCN(CC)C1CCN(c2ccc(Nc3ncc4cc5n(c4n3)C3(CCCCC3)CNC5=O)nc2)C1 (stereo not shown) [UU],IC50,[16],7.3 nM
same,Fold Selectivity (CDK2/CycE/CDK4),[17],542
same,IC50,"[17]; ATP 100 μM, 1 hr, read-out: CDK2/CycE IC50",3960 nM
same,EC50,[15]; HS68 cells,300 nM
CC(C)N1CCN(c2ccc(Nc3ncc4cc5n(c4n3)C3(CCCCC3)CNC5=O)nc2)CC1 [Compound GG],AUC 0-inf (uM * h) i.v.,[4],1.1 µM·h
same,AUC (uM * h) p.o.,[4],1.9 µM·h
same,Cmax,[4],1.9 µM
same,Tmax (h) p.o.,[4],1 h
same,t1/2 (h) p.o.,[4],3.5 h
same,EC50,[7],62 nM
same,EC50,[10],2690 nM
same,IC50,[18],4.7 nM
same,EC50,[11],2920 nM
same,EC50,[14],52 nM
same,EC50,"[15]; Homo sapiens, Hs68, HS68 cells",80 nM
